# Measurements published in patent US9958434B2, “Fluorescent probe sensing tyrosine kinase and use thereof” (POSTECH ACADEMY-INDUSTRY FOUNDATION, priority 2013, dated 2018).
# Tested on: mouse melanoma skin cancer B16F10 tissues
# Test: In vivo two-photon microscopy and OCT imaging of mouse ear transplanted with skin cancer tissues
# Method: More particularly, a mouse's ear was transplanted with skin cancer tissues (mouse melanoma skin cancer B16F10), and treated with compound 1 to determine that fluorescence was selectively observed in a site of cancer in living mice under a two-photon microscope. 6-month-old, SPF/VAF immunodeficent female nude mice (BALB/c-nude mice, OrientBio corp.) were used as the mice, and the B16F10 cancer cells were prepared in the same manner as in Example 12. Then, the concentrated cancer cells from which a solution was removed using a centrifuge were injected into one ear of each mouse using a syringe. After 4 day, formation of cancer tissues in the mouse's ear was checked, and 10 μL of compound 1 (10 mM) was injected into the one ear of each mouse. […] After 30 minutes, the mice were anesthetized by […], and images were taken of cancer tissues and normal tissues using a two-photon fluorescence microscope. […]
# In FIG. 13, each image has a size of 300 μm×300 μm, and a scale bar represents 50 μm. A right bar represents a fluorescence signal intensity. […] The panels a and d show the two-photon fluorescence imaging results from the mice into which nothing is injected, the panels b and e show the two-photon fluorescence imaging results from the mice into which 10 μL of a PBS buffer including no compound 1 is injected, and the panels c and f show the […]
smiles,measurement,setting,value
"CN(C)c1ccc2cc(C=O)c(O)cc2c1 [compound 1, 6-(dimethylamino)-3-hydroxyl-2-naphthaldehyde]",two-photon fluorescence in cancer tissues versus normal tissues,"nude mice, ear injection of 10 μL of compound 1 (10 mM), imaged after 30 minutes, ex 880 nm",strong fluorescence was selectively observed in the cancer tissues
same,3D imaging (two-photon microscopy combined with OCT) fluorescence,"same conditions as Example 14, cancer tissues",fluorescence was strongly emitted from the wide tissues
